Data from PMC5343058 (The Korean Journal of Physiology & Pharmacology : Official …, 2017).

Target: T1, hSlo3+hLRRC52 (Homo sapiens, UniProt A8MYU2)
T1 sequence (A8MYU2 1-1149): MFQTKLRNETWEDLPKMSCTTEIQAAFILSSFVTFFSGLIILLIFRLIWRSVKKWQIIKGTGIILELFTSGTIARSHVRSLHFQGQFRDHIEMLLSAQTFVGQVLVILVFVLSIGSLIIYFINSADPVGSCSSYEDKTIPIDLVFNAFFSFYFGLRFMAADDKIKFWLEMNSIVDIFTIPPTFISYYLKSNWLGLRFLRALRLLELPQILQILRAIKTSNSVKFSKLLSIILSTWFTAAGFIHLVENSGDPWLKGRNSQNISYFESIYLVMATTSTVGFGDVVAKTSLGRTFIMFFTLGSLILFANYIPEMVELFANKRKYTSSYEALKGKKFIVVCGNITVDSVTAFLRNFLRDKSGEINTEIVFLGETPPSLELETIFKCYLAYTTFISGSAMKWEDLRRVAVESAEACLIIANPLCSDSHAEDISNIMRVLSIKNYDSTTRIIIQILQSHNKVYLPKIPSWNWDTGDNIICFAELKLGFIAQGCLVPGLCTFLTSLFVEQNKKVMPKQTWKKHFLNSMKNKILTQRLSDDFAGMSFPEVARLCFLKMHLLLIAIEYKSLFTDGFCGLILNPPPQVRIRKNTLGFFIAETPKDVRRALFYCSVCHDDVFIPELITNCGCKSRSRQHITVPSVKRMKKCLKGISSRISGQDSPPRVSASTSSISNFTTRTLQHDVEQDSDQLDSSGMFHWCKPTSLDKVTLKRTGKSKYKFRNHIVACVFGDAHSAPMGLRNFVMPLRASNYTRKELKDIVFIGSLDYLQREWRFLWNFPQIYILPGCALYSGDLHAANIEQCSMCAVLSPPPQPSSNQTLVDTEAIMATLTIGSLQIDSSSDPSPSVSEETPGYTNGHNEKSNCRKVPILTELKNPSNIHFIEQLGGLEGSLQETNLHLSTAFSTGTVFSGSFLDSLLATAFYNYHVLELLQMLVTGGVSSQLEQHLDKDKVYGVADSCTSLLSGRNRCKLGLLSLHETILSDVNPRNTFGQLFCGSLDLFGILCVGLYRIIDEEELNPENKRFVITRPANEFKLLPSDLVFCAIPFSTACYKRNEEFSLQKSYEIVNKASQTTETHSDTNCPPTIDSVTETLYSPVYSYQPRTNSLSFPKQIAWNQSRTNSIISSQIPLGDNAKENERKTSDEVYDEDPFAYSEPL
T1 sequence (Q8N7C0 24-313 partner): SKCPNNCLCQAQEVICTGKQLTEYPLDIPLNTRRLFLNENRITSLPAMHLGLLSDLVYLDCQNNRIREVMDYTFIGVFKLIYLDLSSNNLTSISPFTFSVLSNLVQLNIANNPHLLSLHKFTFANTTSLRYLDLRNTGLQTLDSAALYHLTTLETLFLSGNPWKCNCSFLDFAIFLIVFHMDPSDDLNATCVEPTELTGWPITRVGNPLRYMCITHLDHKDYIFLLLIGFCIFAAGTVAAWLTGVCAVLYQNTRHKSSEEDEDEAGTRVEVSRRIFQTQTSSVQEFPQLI
Test: whole-cell patch clamp, HEK293, voltage ramp
Format: cell-based
Conditions: HEK293, read-out: % inhibition at 20 mM

inhibition at 20000 µM: 41 ± 5.19%
SMILES: CC[N+](CC)(CC)CC [TEA]
